According to ChEMBL document CHEMBL1201862, “PubChem BioAssay data set” (2004):
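Results reflect a 48-hour exposure of cells in 96-well plates to compound at five concentrations. At the GI50, growth is halved.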 Activity calls are given as the source filed them. Cut-off read from the data, not from the text of the source: active = GI50 up to about 1.1 µM and inactive = higher.

Experiments:
Assay in all cases: inhibition of tumour cell growth, NCI panel, 48 h
SK-OV-3 = system: SK-OV-3
UO-31 = system: UO-31
DU-145 = system: DU-145
OVCAR-5 = system: OVCAR-5
NCI-H522 = system: NCI-H522
SN12C = system: SN12C
HT-29 = system: HT-29
OVCAR-8 = system: OVCAR-8
HL-60 = system: HL-60
M14 = system: M14
MCF7 = system: MCF7
IGROV-1 = system: IGROV-1
OVCAR-3 = system: OVCAR-3
K562 = system: K562
SF-539 = system: SF-539
Hs-578T = system: Hs-578T
SK-MEL-28 = system: SK-MEL-28
CCRF-CEM = system: CCRF-CEM
SF-268 = system: SF-268
NCI-H23 = system: NCI-H23

Measured: GI50

O=C(O)c1ccccc1/C=N/N=C1c2ccccc2-c2ccccc21
inactive: SK-OV-3 44.9 µM | UO-31 32.7 µM | DU-145 42.7 µM | OVCAR-5 50.2 µM | NCI-H522 28.6 µM | SN12C 28.2 µM | HT-29 29 µM | OVCAR-8 44.9 µM | HL-60 28.8 µM | M14 42.2 µM | MCF7 31.2 µM | IGROV-1 43.3 µM | OVCAR-3 15.6 µM | K562 32.1 µM | SF-539 27.9 µM | Hs-578T 3.94 µM | SK-MEL-28 51.2 µM | CCRF-CEM 25.5 µM | SF-268 21.3 µM | NCI-H23 38.5 µM

O=C1C=CC2CCC1C2 (stereo not given)
inactive: SK-OV-3 24.4 µM | UO-31 31.2 µM | DU-145 34.2 µM | OVCAR-5 26.2 µM | NCI-H522 17.7 µM | SN12C 30.4 µM | HT-29 32.3 µM | OVCAR-8 28.7 µM | HL-60 19.2 µM | M14 27.4 µM | MCF7 31.1 µM | IGROV-1 53.3 µM | OVCAR-3 43.1 µM | K562 27.4 µM | SF-539 34.7 µM | Hs-578T 28.6 µM | SK-MEL-28 23.5 µM | CCRF-CEM 28.4 µM | SF-268 20.2 µM | NCI-H23 20.6 µM

COc1ccc(OC)c(N2C(=O)CSC2c2cc(OC)c(OC)c(OC)c2)c1 (stereo not given)
inactive: SK-OV-3 > 100 µM | UO-31 > 100 µM | DU-145 > 100 µM | OVCAR-5 > 100 µM | NCI-H522 40.6 µM | SN12C > 100 µM | HT-29 > 100 µM | OVCAR-8 > 100 µM | HL-60 > 100 µM | M14 > 100 µM | MCF7 71.1 µM | IGROV-1 > 100 µM | OVCAR-3 > 100 µM | K562 83.8 µM | SF-539 > 100 µM | Hs-578T > 100 µM | SK-MEL-28 > 100 µM | CCRF-CEM 71.8 µM | SF-268 > 100 µM | NCI-H23 > 100 µM

COc1ccc(C(=O)c2ccc(-n3cc(/C=C/[N+](=O)[O-])c4ccccc43)cc2)cc1
inactive: SK-OV-3 23.6 µM | UO-31 19.5 µM | DU-145 21.5 µM | OVCAR-5 > 76.4 µM | NCI-H522 15.4 µM | SN12C 16.8 µM | HT-29 23.9 µM | OVCAR-8 20.3 µM | HL-60 13.7 µM | M14 29 µM | MCF7 9.08 µM | IGROV-1 10.8 µM | OVCAR-3 13.6 µM | K562 6.53 µM | SF-539 14.7 µM | Hs-578T 7.57 µM | SK-MEL-28 28.1 µM | CCRF-CEM 2.58 µM | SF-268 18 µM | NCI-H23 20.1 µM

Cc1ccc(Cc2n[nH]c(=O)n2/N=C\CC/C=N\n2c(Cc3ccc(C)cc3)n[nH]c2=O)cc1
inactive: SK-OV-3 36.6 µM | UO-31 > 100 µM | DU-145 > 100 µM | OVCAR-5 > 100 µM | NCI-H522 > 100 µM | SN12C 44.7 µM | HT-29 28.8 µM | OVCAR-8 17.8 µM | HL-60 14.6 µM | M14 27.3 µM | MCF7 23.9 µM | IGROV-1 33.3 µM | OVCAR-3 > 100 µM | K562 96.8 µM | SF-539 3.99 µM | Hs-578T 15.5 µM | SK-MEL-28 33.5 µM | CCRF-CEM 4.1 µM | SF-268 18 µM | NCI-H23 26.9 µM

N#C/C(=C\c1c[nH]c2ccccc12)C(=O)c1ccc(O)c(O)c1
inactive: SK-OV-3 43.5 µM | UO-31 6.85 µM | DU-145 27.4 µM | OVCAR-5 33 µM | NCI-H522 13.5 µM | SN12C 23.1 µM | HT-29 28 µM | OVCAR-8 38.5 µM | HL-60 13.2 µM | M14 38.5 µM | MCF7 12 µM | IGROV-1 24.6 µM | OVCAR-3 3.33 µM | K562 23.2 µM | SF-539 25.6 µM | Hs-578T 47.2 µM | SK-MEL-28 47.3 µM | CCRF-CEM 5.87 µM | SF-268 39.7 µM | NCI-H23 45.8 µM

CC(C)=CCC[C@@H](C)c1c2ncc[nH]c-2c(C)c(=O)c1O
inactive: SK-OV-3 31.8 µM | UO-31 6.92 µM | DU-145 31.6 µM | OVCAR-5 45.6 µM | NCI-H522 1.76 µM | SN12C 28.8 µM | HT-29 27.4 µM | OVCAR-8 10 µM | HL-60 7.03 µM | M14 27.9 µM | MCF7 36.8 µM | IGROV-1 26.7 µM | OVCAR-3 27.4 µM | K562 21.7 µM | SF-539 22.2 µM | Hs-578T 23.2 µM | SK-MEL-28 48.5 µM | CCRF-CEM 4.53 µM | SF-268 15.2 µM | NCI-H23 22.4 µM

CCOC(=O)C1=C(C)N(C)C(=S)NC1c1cccc(O)c1 (stereo not given)
inactive: SK-OV-3 36.4 µM | UO-31 81.5 µM | DU-145 57.3 µM | OVCAR-5 64.1 µM | NCI-H522 25.2 µM | SN12C 31.8 µM | HT-29 38.9 µM | OVCAR-8 32.6 µM | HL-60 17.8 µM | M14 29.4 µM | MCF7 29.6 µM | IGROV-1 21.1 µM | OVCAR-3 36.1 µM | K562 19.7 µM | SF-539 53.2 µM | Hs-578T 46.7 µM | SK-MEL-28 49.1 µM | CCRF-CEM 21.4 µM | SF-268 62.5 µM | NCI-H23 26.4 µM
